Here are results for nine compounds from PubChem BioAssay (NCI).

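Values below derive from 48-hour exposures of cells grown in 96-well plates, with endpoints linearly interpolated between the two concentrations bracketing the appropriate inhibition level. The concentration for full growth arrest is given as TGI.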 A value given as a limit tells only on which side of the number the result lay.

Test systems include MALME-3M melanoma; CAKI-1 renal; OVCAR-3 ovarian; EKVX NSCLC; HOP-92 NSCLC; PC-3 prostate; K-562 leukemia; HL-60(TB) leukemia; NCI-H23 lung; RXF 393 renal; UO-31 renal; OVCAR-4 ovarian; OVCAR-8 ovarian; A498 renal; TK-10 renal.
Holding throughout (assay): NCI-60 cell line screen, 48 h

Take `COC(=O)c1c(C)cccc1CC1Cc2c(C)cccc2C1=O` (stereo not given): the TGI in the assay on MALME-3M melanoma is more than 100 µM; in the assay with CAKI-1 renal it was more than 100 µM; in the assay with OVCAR-3 ovarian it was more than 100 µM; in the assay with EKVX NSCLC, more than 100 µM; in the assay with HOP-92 NSCLC, 70.9 µM; in the assay with PC-3 prostate it was more than 100 µM. Also, the TGI in the assay with K-562 leukemia is more than 100 µM; in the assay on HL-60(TB) leukemia it was 45.5 µM; in the assay on NCI-H23 lung it was 99.5 µM; in the assay with RXF 393 renal, more than 100 µM; in the assay with UO-31 renal it was 71 µM; with OVCAR-4 ovarian, more than 100 µM. For the same compound, the TGI with OVCAR-8 ovarian was more than 100 µM; in the assay on A498 renal, 73.7 µM; in the assay with TK-10 renal it was more than 100 µM.

Turning to `OC1COC(n2c3ccc(Br)cc3c3ccc4c5ccccc5[nH]c4c32)C(O)C1O` (stereo not given), the TGI with MALME-3M melanoma stood at 15.3 µM; in the assay with CAKI-1 renal it was 10.6 µM; in the assay with OVCAR-3 ovarian it was 12.5 µM; in the assay with EKVX NSCLC, 17.3 µM; with HOP-92 NSCLC it was 9.38 µM; in the assay on PC-3 prostate, 12 µM. Also, the TGI in the assay with K-562 leukemia is 13.6 µM; with HL-60(TB) leukemia, 8.75 µM; with NCI-H23 lung it was 12 µM; in the assay on RXF 393 renal it was 7.37 µM; in the assay on UO-31 renal, 14.2 µM; with OVCAR-4 ovarian, more than 46.2 µM. Moreover, the TGI came out at 15.8 µM in the assay on OVCAR-8 ovarian, 13.9 µM in the assay on A498 renal and 13.9 µM in the assay on TK-10 renal.

`Cc1ccc(Nc2cc(=O)[nH]c(=S)[nH]2)cc1`: the TGI in the assay on MALME-3M melanoma, in the assay with CAKI-1 renal, with OVCAR-3 ovarian, in the assay on EKVX NSCLC, with HOP-92 NSCLC and with PC-3 prostate was more than 100 µM throughout. Moreover, the TGI in the assay with K-562 leukemia, with HL-60(TB) leukemia, in the assay on NCI-H23 lung, with RXF 393 renal, in the assay with UO-31 renal and in the assay with OVCAR-4 ovarian was more than 100 µM throughout. Further, the TGI with OVCAR-8 ovarian, in the assay with A498 renal and in the assay on TK-10 renal was more than 100 µM in each case.

On to `CN(C)Cc1cc(N=Nc2ccccc2)cc(CN(C)C)c1O`, for which the TGI in the assay with MALME-3M melanoma, in the assay on CAKI-1 renal, in the assay with OVCAR-3 ovarian, with EKVX NSCLC, in the assay with HOP-92 NSCLC and in the assay with PC-3 prostate was more than 100 µM each time. Also, the TGI with K-562 leukemia is more than 100 µM; in the assay with HL-60(TB) leukemia it was 66.9 µM; with NCI-H23 lung it was more than 100 µM; with RXF 393 renal it was more than 100 µM; in the assay with UO-31 renal, more than 100 µM; in the assay on OVCAR-4 ovarian, more than 100 µM. The TGI with OVCAR-8 ovarian, with A498 renal and in the assay on TK-10 renal was more than 100 µM throughout.

For `C[Si](C)(OCCS(=O)(=O)O)C1S(=O)(=O)OCCOS1(=O)=O`, the TGI with MALME-3M melanoma was more than 100 µM; in the assay on CAKI-1 renal it was 84 µM; with OVCAR-3 ovarian, more than 100 µM; with EKVX NSCLC it was more than 100 µM; in the assay with HOP-92 NSCLC, more than 100 µM; in the assay with PC-3 prostate, more than 100 µM. The TGI in the assay with K-562 leukemia, in the assay with HL-60(TB) leukemia, in the assay with NCI-H23 lung, in the assay on RXF 393 renal, in the assay on UO-31 renal and in the assay with OVCAR-4 ovarian was more than 100 µM in each case. For the same compound, the TGI in the assay with OVCAR-8 ovarian, with A498 renal and in the assay on TK-10 renal was more than 100 µM throughout.

As to `COC(=O)c1c(C)cccc1/C=C1\Cc2cc(C)cc(C)c2C1=O`, the TGI with MALME-3M melanoma was more than 100 µM; with CAKI-1 renal it was more than 100 µM; with OVCAR-3 ovarian, more than 100 µM; in the assay on EKVX NSCLC it was more than 100 µM; in the assay on HOP-92 NSCLC it was 39.4 µM; with PC-3 prostate it was more than 100 µM. The TGI in the assay on K-562 leukemia was more than 100 µM; with HL-60(TB) leukemia, more than 100 µM; with NCI-H23 lung, more than 100 µM; in the assay on RXF 393 renal, 58.5 µM; with UO-31 renal, more than 100 µM; in the assay on OVCAR-4 ovarian it was 51.4 µM. Besides, the TGI was more than 100 µM in the assay on OVCAR-8 ovarian, more than 100 µM with A498 renal and 73 µM in the assay with TK-10 renal.

As to `CSc1ccc(/C=C2\N=C(c3ccccc3)N(c3nc4ccc(Sc5ccccc5)cc4[nH]3)C2=O)cc1`, the TGI in the assay with MALME-3M melanoma is more than 58.5 µM; in the assay with CAKI-1 renal it was more than 94 µM; in the assay on OVCAR-3 ovarian it was 35.9 µM; in the assay on EKVX NSCLC, more than 100 µM; in the assay with HOP-92 NSCLC, 34 µM; in the assay with PC-3 prostate, more than 87.9 µM. For the same compound, the TGI in the assay with K-562 leukemia was 66.4 µM; with HL-60(TB) leukemia, 49.4 µM; in the assay on NCI-H23 lung, more than 94.5 µM; in the assay with RXF 393 renal it was 56.9 µM; in the assay on UO-31 renal it was 68.5 µM; with OVCAR-4 ovarian, more than 100 µM. The TGI with OVCAR-8 ovarian is more than 87.4 µM; with A498 renal, 62 µM; with TK-10 renal it was 60.8 µM.

Consider `O=[N+]([O-])c1cccnc1NCC1(CO)CC(Cc2ccccc2)C1` (stereo not given), for which the TGI in the assay on MALME-3M melanoma is more than 100 µM; with CAKI-1 renal, more than 100 µM; in the assay with OVCAR-3 ovarian it was more than 100 µM; in the assay with EKVX NSCLC, more than 100 µM; in the assay with HOP-92 NSCLC, 60.1 µM; in the assay with PC-3 prostate, more than 100 µM. For the same compound, the TGI in the assay on K-562 leukemia, in the assay with HL-60(TB) leukemia, with NCI-H23 lung, in the assay on RXF 393 renal, in the assay on UO-31 renal and in the assay on OVCAR-4 ovarian was more than 100 µM in each case. Further, the TGI with OVCAR-8 ovarian, in the assay with A498 renal and with TK-10 renal was more than 100 µM in each case.

In the case of `CNC(=S)N/N=C/c1cccc(C)n1`, the TGI in the assay with MALME-3M melanoma, in the assay on CAKI-1 renal, in the assay with OVCAR-3 ovarian, with EKVX NSCLC, with HOP-92 NSCLC and in the assay with PC-3 prostate was more than 100 µM each time. For the same compound, the TGI in the assay on K-562 leukemia is more than 100 µM; in the assay with HL-60(TB) leukemia it was more than 75.9 µM; with NCI-H23 lung it was more than 81.2 µM; with RXF 393 renal, 97.4 µM; with UO-31 renal, more than 100 µM; in the assay with OVCAR-4 ovarian, more than 100 µM. The results for the TGI with OVCAR-8 ovarian, in the assay with A498 renal and in the assay on TK-10 renal were more than 75.7 µM, more than 71 µM and more than 100 µM, respectively.
